“Also recorded” adds a separate entry of the source. Where two headings read alike, the source gives them in different places.
Key:
[1] = system: MAO-A (rat liver mitochondrial fraction); parameters: method as in PMID 18372132; conditions: chromogenic solution; cited from earlier work
[2] = system: MAO-B (rat liver mitochondrial fraction); parameters: method as in PMID 18372132; conditions: cited from earlier work
[3] = target: T1, human recombinant MAO-B (Homo sapiens, UniProt P27338); assay: kynuramine oxidation deamination assay, MAO-B inhibition (IC50); assay type: biochemical; parameters: purchased BD Biosciences (Bedford, MA, USA); conditions: for Selectivity Index MAO-A/B: ratio of IC50 MAO-A / MAO-B; for IC50: recombinant human MAO-B, kynuramine 50 μM, mean ± S.D. of triplicate
T1 sequence (P27338 1-520): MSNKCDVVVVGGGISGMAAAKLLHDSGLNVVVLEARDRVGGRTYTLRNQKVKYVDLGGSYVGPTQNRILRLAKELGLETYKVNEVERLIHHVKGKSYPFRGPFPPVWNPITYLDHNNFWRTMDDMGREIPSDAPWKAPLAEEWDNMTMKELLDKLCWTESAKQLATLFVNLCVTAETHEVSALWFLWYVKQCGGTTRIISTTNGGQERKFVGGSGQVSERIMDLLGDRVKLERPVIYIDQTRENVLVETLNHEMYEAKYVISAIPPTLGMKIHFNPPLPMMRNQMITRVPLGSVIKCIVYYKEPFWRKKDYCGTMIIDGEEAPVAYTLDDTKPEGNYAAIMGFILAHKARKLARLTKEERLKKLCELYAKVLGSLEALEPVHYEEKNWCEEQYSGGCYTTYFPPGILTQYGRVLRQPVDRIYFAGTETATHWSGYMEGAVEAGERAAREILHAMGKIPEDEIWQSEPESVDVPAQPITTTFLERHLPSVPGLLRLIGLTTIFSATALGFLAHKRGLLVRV
Description: A fixed single concentration of kynuramine substrate and varying concentrations of the test inhibitor were used to determine the IC50 values. […] These concentrations of kynuramine were twice the apparent KM value for substrate binding. […] Enzymatic reactions were performed in 50 μL of the assay mixture containing 0.1 M potassium phosphate buffer, pH 7.4. […] Reactions were initiated by the addition of 12.50 μL of MAO-A (to 5 μg/mL) or -B (to 10 μg/mL). The plate was incubated for 20 min at 37 °C, and the enzymatic reaction was terminated by the addition of 18.8 μL of 2N NaOH. Formation of the enzyme product, 4-hydroxyquinoline, was measured fluorometrically using a SpectraMax M5 fluorescence plate reader (Molecular Devices, Sunnyvale, CA, USA) with excitation (320 nm) and emission (380 nm) wavelengths and the Soft Max Pro program. The inhibition effects of enzyme activity were calculated as percent of product formation compared to the corresponding control (enzyme–substrate reaction) without inhibitors. Controls included the assays where the enzyme or the substrate was added after terminating the reaction to determine the interference with the fluorescence measurements. The IC50 values for MAO-A and -B inhibition were calculated from the concentration-dependent inhibition curves using XLFit® software.

[4] = target: T2, human recombinant MAO-A (Homo sapiens, UniProt P21397); assay: kynuramine oxidation deamination assay, MAO-A inhibition (IC50); assay type: biochemical; conditions: kynuramine 80 μM, mean ± S.D. of triplicate
T2 construct: purchased BD Biosciences (Bedford, MA, USA)
T2 sequence (P21397 1-527): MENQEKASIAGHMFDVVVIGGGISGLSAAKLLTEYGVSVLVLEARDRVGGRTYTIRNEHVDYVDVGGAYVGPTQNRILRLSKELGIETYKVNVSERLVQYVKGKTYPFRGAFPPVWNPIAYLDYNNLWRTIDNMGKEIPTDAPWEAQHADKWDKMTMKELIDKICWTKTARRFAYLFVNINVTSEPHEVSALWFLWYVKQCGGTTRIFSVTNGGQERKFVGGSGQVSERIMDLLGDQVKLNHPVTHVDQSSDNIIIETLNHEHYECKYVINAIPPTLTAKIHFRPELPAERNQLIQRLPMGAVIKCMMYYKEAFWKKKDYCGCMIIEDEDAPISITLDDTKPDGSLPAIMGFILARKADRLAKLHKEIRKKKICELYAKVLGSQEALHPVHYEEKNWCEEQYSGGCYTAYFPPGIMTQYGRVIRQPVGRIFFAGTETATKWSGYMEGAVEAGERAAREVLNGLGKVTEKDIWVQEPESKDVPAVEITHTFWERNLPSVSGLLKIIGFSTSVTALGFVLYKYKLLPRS
Description: A fixed single concentration of kynuramine substrate and varying concentrations of the test inhibitor were used to determine the IC50 values. The kynuramine concentrations for MAO-A and -B were 80 μM and 50 μM, respectively. These concentrations of kynuramine were twice the apparent KM value for substrate binding. […] Enzymatic reactions were performed in 50 μL of the assay mixture containing 0.1 M potassium phosphate buffer, pH 7.4. […] Reactions were initiated by the addition of 12.50 μL of MAO-A (to 5 μg/mL) or -B (to 10 μg/mL). The plate was incubated for 20 min at 37 °C, and the enzymatic reaction was terminated by the addition of 18.8 μL of 2N NaOH. Formation of the enzyme product, 4-hydroxyquinoline, was measured fluorometrically using a SpectraMax M5 fluorescence plate reader (Molecular Devices, Sunnyvale, CA, USA) with excitation (320 nm) and emission (380 nm) wavelengths and the Soft Max Pro program. The inhibition effects of enzyme activity were calculated as percent of product formation compared to the corresponding control (enzyme–substrate reaction) without inhibitors. Controls included the assays where the enzyme or the substrate was added after terminating the reaction to determine the interference with the fluorescence measurements. The IC50 values for MAO-A and -B inhibition were calculated from the concentration-dependent inhibition curves using XLFit® software.

[5] = target: T1, human recombinant MAO-B; assay: reversibility of binding by equilibrium dialysis of the enzyme–inhibitor complex; conditions: for reversibility of binding/inhibition of MAO-B: equilibrium dialysis; for MAO-B enzyme activity recovered after dialysis: 1.5 µM inhibitor, dialyzed overnight at 4 °C, 25 mM buffer pH 7.4
Description: Recovery of the catalytic activity of the enzyme was determined by assay of the enzyme activity before and after equilibrium-dialysis. […] After 20 min of incubation at 37 °C, the reaction was stopped by chilling the tubes in the ice bath. All the samples were dialyzed against potassium phosphate buffer (25 mM; pH 7.4) at 4 °C for 14–18 h (with three buffer changes). The control enzyme (without inhibitor) was also run simultaneously using the same procedure and the activity of the enzyme was determined before and after the dialysis.
MAO-B enzyme was incubated with the highest concentration of the analogs for 20 min at 37 °C to allow for binding of the inhibitor with the enzyme and formation of the enzyme–inhibitor complex. Then, the mixtures of the enzyme–inhibitor complex were dialyzed overnight at 4 °C using 25 mM KHPO4 (pH 7.4) buffer. The enzyme activities were examined before and after dialysis.

[6] = target: T1, human recombinant MAO-B; assay: MAO-B inhibition kinetics, Lineweaver–Burk (Ki, type of inhibition); assay type: biochemical; parameters: purchased BD Biosciences (Bedford, MA, USA); conditions: for Ki: kynuramine 1.90–500 μM, mean ± S.D. of triplicate experiments, read-out: Monoamine Oxidase B Ki
Description: (§1) The controls without inhibitor were also run simultaneously. Three sets of assays were performed at varying concentrations of the substrate for each experiment: one control without inhibitor and the others at two fixed concentrations of the inhibitor. The data were analyzed by double reciprocal Lineweaver–Burk plots to determine Ki (i.e., inhibition/binding affinity) values and the kinetic data, namely Km, Vmax, and Ki values, were computed by SigmaPlot 12 [9].
Modified flavonoids (1–4) c were evaluated against MAO-B at varying concentrations of kynuramine, a nonselective substrate, to investigate the nature of inhibition of the enzymes. Based on dose–concentration inhibition, three to five concentrations (below and above the concentration of IC50 values) were selected for the inhibition kinetics experiment.

[7] = target: T1, human recombinant MAO-B; assay: time-dependent inhibition of MAO-B; conditions: read-out: MAO-B enzyme inhibition in time-dependent assay
Description: The controls, without inhibitors, were also run simultaneously. Activities of the enzyme were determined as described above, and the percentage of the remaining enzyme activity was plotted against the pre-incubation time to determine time-dependent inhibition.
The control enzyme without inhibitor was also run concurrently. For validation, the MAO- B standards were run simultaneously for the time-dependent assay.

[8] = system: MAO-B; parameters: method as in PMID 32869630; conditions: chemiluminescent assay, MAO-Glo kit; cited from earlier work
[9] = system: MAO-A; parameters: method as in PMID 32869630; conditions: chemiluminescent assay, MAO-Glo kit; cited from earlier work
[10] = target: T1, human recombinant MAO-B; parameters: purchased BD Biosciences (Bedford, MA, USA); conditions: cited from earlier work
[11] = system: human recombinant MAO B; conditions: cited from earlier work
[12] = system: human recombinant MAO A; conditions: cited from earlier work
[13] = target: T3, Monoamine Oxidase A (Homo sapiens, UniProt P21397); assay: MAO-A inhibition kinetics (Ki, type of inhibition); assay type: biochemical
T3 sequence (P21397 1-527): T2 sequence (P21397 1-527)
Description: as §1

Compound	selectivity towards MAO-B compared with MAO-A [3]	Selectivity Index MAO-A/B [3]	IC50 [3]	IC50 [4]	reversibility of binding/inhibition of MAO-B [5]	Monoamine Oxidase B Type of Inhibition [6]	Ki [6]	also measured
O=C1C[C@@H](c2ccc(O)cc2)Oc2cc(O)cc(O)c21 [Naringenin]	–	–	–	–	–	–	–	IC50 [1]: 955 ± 129 µM; IC50 ([2]; chromogenic solution): 288 ± 18 µM; Selectivity Index MAO-A/B [2]: 3.32
COc1cc(O)c2c(=O)cc(-c3ccc(OCC(C)C)cc3)oc2c1 [Compound 3c, 5-Hydroxy-2-(4-Isobutoxyphenyl)7-methoxy-4H-chromen-4-one]	> 3000 fold	>3225.8	0.031 ± 0.007 µM	> 100 µM	irreversible MAO-B inhibitors	mixed/irreversible	0.037 ± 0.0095 µM	selectivity towards MAO-B compared with MAO-A ([3]; listed as O-isobutyl): > 3225 fold; inhibition at 0.3 µM [7]: 70 to 80%
CCCOc1ccc(-c2cc(=O)c3c(O)cc(OC)cc3o2)cc1 [Compound 1c, 5-Hydroxy-7-methoxy-2-(4-propoxyphenyl)-4H-chromen-4-one]	1478 fold	1478.2	0.033 ± 0.0042 µM	48.8 ± 2.01 µM	partially reversible; also recorded: reversible inhibition	mixed/partially reversible	0.043 ± 0.0038 µM	MAO-B enzyme activity recovered after dialysis [5]: 30%; reversibility of binding/inhibition of MAO-B ([5]; listed as O-propyl): reversible MAO-B inhibitors; inhibition at 0.1 µM [7]: 70 to 80%
O=c1cc(-c2ccc(O)c(O)c2)oc2cc(O)cc(O)c12 [Luteolin]	–	–	–	–	–	–	–	IC50 [8]: > 100 µM; IC50 [9]: 8.57 ± 0.47 µM
C#CCOc1ccc(-c2cc(=O)c3c(O)cc(OC)cc3o2)cc1 [Compound 4c, 5-Hydroxy-7-methoxy-2-(4-(prop-2-yn-1-yloxy)phenyl)-4H-chromen-4-one]	1279 fold	1279.6	0.049 ± 0.0014 µM	62.7 ± 5.21 µM	irreversible MAO-B inhibitors	mixed/irreversible	0.068 ± 0.0071 µM	inhibition at 0.4 µM [7]: 70 to 80%
COc1ccc(-c2cc(=O)c3c(O)cc(OC)cc3o2)cc1 [Acacetin 7-O-methyl ether]	–	–	–	–	–	–	–	Monoamine Oxidase B Type of Inhibition [10]: competitive/partially reversible; Selectivity Index MAO-A/B [11]: >505.05; selectivity index (SI) for MAO A/B [11]: > 505 fold; IC50 ([11]; human recombinant, kynuramine): 0.198 ± 0.001 µM; IC50 ([12]; human recombinant, kynuramine): > 100 µM
COc1ccc(-c2cc(=O)c3c(O)cc(O)cc3o2)cc1 [Acacetin]	–	–	–	0.105 ± 0.0014 µM	–	competitive/reversible	–	Monoamine Oxidase A Type of Inhibition [13]: competitive/reversible; Ki ([13]; mean ± S.D. of triplicate experiments): 0.03 ± 0.0018 µM; IC50 ([11]; human recombinant, kynuramine): 0.049 ± 0.0007 µM; IC50 ([12]; human recombinant, kynuramine): 0.121 ± 0.001 µM
COc1cc(O)c2c(=O)cc(-c3ccc(OC(C)C)cc3)oc2c1 [Compound 2c, 5-Hydroxy-2-(4-isopropoxyphenyl)-7-methoxy-4H-chromen-4-one]	1921 fold	1921.3	0.016 ± 0.007 µM	30.74 ± 0.023 µM	reversible inhibition	mixed/reversible	0.052 ± 0.0031 µM	MAO-B enzyme activity recovered after dialysis [5]: 66%; reversibility of binding/inhibition of MAO-B ([5]; listed as O-isopropyl): reversible MAO-B inhibitors; inhibition at 0.3 µM [7]: 30 to 50%
